The source of these data is US9789153B2, “Composition for preventing cancer and treating cancer and intensifying the effects of other anticancer drugs” (priority 2014, dated 2017).

For the assay, the system named is Cancer cells. The assay is described as follows: MTT assay-A positive control group. Type of assay: cell-based. The settings on record: Triton X100 1%, positive control C2. On the procedure:
MTT (3-(4,5 dimethylthiazole-2-yl)-2,5-diphenyl tetrazolium bromide) is a proven cell viability indicator and this yellow colored tetrazolium salt gets reduced to purple colored formazan crystals by mitochondrial reductase enzyme seen only in metabolically active cells. It measures the cell proliferation rate and the reduction in cell viability when metabolic events lead to apoptosis or necrosis. Triplicate samples were analyzed and cell viability was calculated in percentage with respect to negative control group as follows Cell viability (%)=(Nt/Nc)×100 Nt is the absorbance of cells treated with sample and Nc is the absorbance of untreated cells (negative control group-Cell culture medium alone). The cell survival rate of negative control group is 100%. The results of MTT assays are shown in Figures, Wherein, the horizontal axis represents concentration of test sample and the vertical axis represents the cell survival rate. […]
Cancer cells were incubated for 2 days. […] Optical density of the solution was measured at a wavelength of 570 nm using a Beckmann Coulter Elisa plate reader (BioTek Power Wave XS). […]
Background: Formazan colour is commonly taken as a measure of viable cells.

For the substance Triton X100, the cells killed entry is “more than 90%”.
